Target: T1, FPR1 (UniProt P21462)
T1 sequence (P21462 1-350): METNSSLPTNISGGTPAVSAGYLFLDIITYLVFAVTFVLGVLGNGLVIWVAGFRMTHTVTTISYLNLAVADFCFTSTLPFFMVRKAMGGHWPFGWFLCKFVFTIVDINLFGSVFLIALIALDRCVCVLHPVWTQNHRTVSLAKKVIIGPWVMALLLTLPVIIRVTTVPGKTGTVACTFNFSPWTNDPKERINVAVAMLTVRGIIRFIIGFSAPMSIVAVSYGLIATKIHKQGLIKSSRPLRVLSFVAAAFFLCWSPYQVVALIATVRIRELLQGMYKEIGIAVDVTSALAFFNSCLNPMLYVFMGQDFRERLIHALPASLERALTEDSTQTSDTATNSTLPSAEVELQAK
Test: fMLP-FPR1 mediated intracellular calcium signaling assay in FPR1-overexpressing 293T cells
Type: cell-based, human or mouse
Conditions: inhibition of fMLP-stimulated intracellular calcium change; hFPR1 or mFPR1 overexpressing 293T cells; 10 min pre-incubation; INDO-1 AM, FACS; read-out: IC50 (nM), potency in calcium signaling assay
Description: The effects of the compounds of this disclosure on regulating the FPR1-mediated cell signaling were measured by monitoring the cellular calcium level change, as illustrated by the exemplary examples in Table 2. The dose responses of the illustrated examples are reported categorically using the following ranking criteria: *** (IC50≤100 nM); ** (IC50≥100 to ≤1000 nM); * (IC50≥1000 to ≤10,000 nM); N.D.—not detected.
The coding DNA sequence (CDS) of human FPR1 (NM_001193306) and mouse FPR1 (NM_013521) were cloned and inserted to the lentivirus vector GV367 (Vector information: • http://www.genechem.com.cn/index/supports/tool_search.html?keywords=GV367) under the conduction of pCMV promoter. 293T cells were cultured in H-DMEM supplemented with 10% FBS and 1% penicillin—streptomycin (PS) at 37° C. in 5% CO2 Incubator. […] The overexpression of human or mouse FPR1 in 293 T cells were detected by immunostaining with anti-mouse or human FPR1 antibodies (Biolegend or Antibody Online). […]
Cultured hFPR1 or mFPR1 overexpressing 293T cells were labeled with 1 μM INDO-1 AM calcium sensor dye (eBioscience) for 30 min at 37° C. […] The cytoplasmic calcium levels were then measured by FACS Aria III at 37° C. prior to and after the stimulation of fMLP. […] The change of intracellular calcium was calculated as follow: (basal value-minimum value)/basal value×100%. […]

With `Cc1ccc(O)c(-c2onc3c2C(c2ccc(C(F)(F)F)cc2)N(C2CCOCC2)C3=O)c1` (racemic) [Compound 1, rac-3-(2-hydroxy-5-methylphenyl)-5-(tetrahydro-2H-pyran-4-yl)-4-(4-(trifluoromethyl)phenyl)-4,5-dihydro-6H-pyrrolo[3,4-c]isoxazol-6-one] the IC50 was 1000 to 10000 nM.

`Cc1ccc(O)c(-c2noc3c2C(c2ccc(C(F)(F)F)cc2)N(C2CCOCC2)C3=O)c1` (racemic) [Compound 2, rac-3-(2-hydroxy-5-methylphenyl)-5-(tetrahydro-2H-pyran-4-yl)-4-(4-(trifluoromethyl)phenyl)-4,5-dihydro-6H-pyrrolo[3,4-d]isoxazol-6-one] showed an IC50 of 100 to 1000 nM.

Source: patent US20240300973A1, “MODULATORS OF FPR1 AND METHODS OF USING THE SAME” (BIOFRONT THERAPEUTICS (BEIJING) CO., LTD., priority 2021, published 2024)
